Tests used:
[1] = tested on: human platelets (platelet rich plasma), ADP-induced aggregation; test: In vitro test for inhibition of human platelet aggregation induced by ADP; format: cell-based; details: 5 μM ADP; human PRP; mean of n experiments; entries marked b measured with a Chronolog aggregometer, others with micro plate reader; read-out: Inhibition of ADP-induced (5 μM) human platelet aggregation (IC50), mean
Text: I.a. In vitro Test for Inhibition of Human Platelet Aggregation Induced by ADP
Addition of adenosine diphosphate (ADP) to human platelet rich plasma (PRP) in vitro induces platelet aggregation. This aggregation can be assessed by measuring the optical density (OD) of the PRP. The in vitro test described here was used to determine the inhibitory activity of a test compound on the ADP-induced aggregation of human platelets. A micro plate reader is used to measure the activity of several compounds simultaneously.
An alternative vehicle is 0.9% NaCl in MQ H2O. The compound solution (either in MQ H2O or 0.9% NaCl in MQ H2O) is further diluted in 0.9% NaCl in MQ H2O.
Free-flowing blood (at least 100 mL) is taken from a healthy volunteer and collected in 0.1 volume 3.8% sodium citrate. 2H2O in distilled H2O (w/v). The final concentration is 0.38% sodium citrate.
The citrated blood is centrifuged at 1,600 N/kg (160 g) at RT. After 15 min, centrifugation is discontinued with the brake turned off and the supernatant (=PRP) is collected. • 2. ADP (Kordia/Chrono-par # 384). Before use, a solution of 50 μM in 0.9% NaCl is prepared. Equipment • 1. Sysmex blood cell counter model KX-21. • 2. Labsystems iEMS reader MF with a 620 nm filter, an orbital shaker set at 1,000 rpm and a constant temperature of 37° C. Absorption is measured with the Labsystems iEMS program. • 3. Blood collection system 600 mL with needle, art P4203 (NPBI). • 4. 96 wells flat bottom micro plates (Greiner Labortechnik). Procedure
The platelets in the supernatant (PRP) are counted using a Sysmex blood cell counter and the supernatant is diluted with PPP to obtain a PRP containing 400,000±50,000 plt/μL. PRP should stabilize at RT for at least 20 min but not longer than 3 h.
150 μL PRP is pipetted into a well of the micro plate. 30 μL test compound in a range of concentrations (7 concentrations per compound) or vehicle is added and the micro plate is placed in the Labsystems iEMS reader MF at 37° C. The optical density (OD620) is then measured at 620 nm. After shaking for 2 min in the reader (1,000 rpm), the OD is measured for the second time. This is to verify the stability of the platelets (absence of spontaneous platelet aggregation). Then, 20 μL of 50 μM ADP solution is added and the OD is kinetically measured every min for 14 min at 620 nm (FIG. 1). Between two measurements, the plate is shaking for 40 seconds at 1,000 rpm. Each test compound is investigated in at least 2 experiments using PRP from different volunteers.
The mean OD at each compound concentration (including vehicle) is calculated at t=0 min and t=10 min. The percentage inhibition at each concentration is calculated using the formula: […]
The IC50 of the test compound is the concentration of the test compound at which the ADP-induced platelet aggregation is reduced by 50%. For this, the percentage inhibition values are plotted against compound concentration. Then, IC50, nH (Hill slope) and efficacy of the test compound is calculated using Graphpad Prism 3.0 (with variable slope).
Reference: Salmon, D. M. (1996) Thrombosis Research 84, 213-216.

Bovine factor Xa = test: Determination of anti-factor Xa activity in buffer (microtiter plate method, AT-III mediated); format: biochemical; details: Kabi buffer, human AT-III
Text: II. Determination of Anti-Factor Xa Activity in Buffer
(Microtiter Plate Method)
Anticoagulants can inhibit Xa directly or, like heparin, by potentiating the inhibitory activity of AT-III. Anti-Xa activity can be assessed by determination of the rate of hydrolysis of the chromogenic substrate S-2222 in the presence of AT-III. This assay is used to determine anti-Xa activity of heparinoid preparations in Kabi buffer.
Test medium: Kabi buffer.
Ref. compound: International standard heparin (11.4 anti-Xa U/mg).
Composition of the buffer: NaCl 10.17 g (174 mmol); edetate disodium dihydrate 3.26 g (9.6 mmol); tromethamine (Tris) 6.11 g (50.4 mmol); made up to 1 L with ultrapure H2O *. The pH of the solution is adjusted to 7.4 with hydrochloric acid (0.10 mol/L)
Bovine factor Xa (Kabi Diagnostica, Stockholm, Sweden) is dissolved in Kabi buffer to give a solution containing 1.5 U/mL (0.75 nKat/mL). • 3. S-2222 solution
S-2222 (Kabi Diagnostica) is dissolved in ultrapure H2O to give a solution containing 0.375 mg/mL (0.5 mmol/L). • 4. AT-III solution
Human AT-III (Kabi Diagnostica) is dissolved in Kabi buffer to give a solution containing 0.25 U/mL. A fresh solution has to be prepared daily. • 5. Standard solution of the calibration sample
Standard heparin is dissolved in Kabi buffer to give a standard solution containing approx. 0.25 anti-Xa U/mL.
Each preparation is dissolved in ultrapure H2O and diluted with Kabi buffer to the required concentrations in the range of 0.02-0.2 anti-Xa U/mL
Each test sample (0.05 mL) is pipetted into a well of a microtiter plate at RT. AT-III solution (0.05 mL) is added to each sample and the plate is shaken using a Vari-shaker.
An aliquot of Xa solution (0.05 mL) is pipetted into each well 10 min following addition of AT-III solution and the plate is shaken again. Exactly 2 min following addition of Xa solution, 0.1 mL S-2222 solution is pipetted into each well and the plate is shaken again. For all additions a 12-channel pipette is used.
The remaining amount of Xa catalyses the hydrolysis of S-2222, the rate of which is measured photometrically following incubation periods of 2 and 22 min respectively at RT. The absorbance of each sample is measured at 405 nm using a Reader Microelisa, model 310C (Organon Teknika, Oss, The Netherlands) and the increase in absorbance (ΔOD) is calculated. Each test sample is determined in duplicate. With every 10 samples, a blank (0.05 mL Kabi buffer) is included.
From an aliquot of the standard solution of the calibration sample a range of dilutions is made (dilution factor 1,3 for heparin samples). The resulting standard samples (approx. 15 samples) should contain between 0.01-0.25 anti-Xa U/mL. […]
For each sample the mean anti-Xa activity in U/mL is determined using the calibration curve. […]

“Methyl O-2,3-di-O-methyl-4-O-<<12-N-<N-(3-keto-benzenesulfonyl)-4-O-{4-(4-piperidinyl)-butyl}-L-tyrosine>-12-aza-3,6,9-trioxa-dodecyl>>-6-O-sulfo-alpha-D-glucopyranosyl-(1->4)-O-2,3-di-O-methyl-beta-D-glucopyranuronosyl-(1->4)-O-2,3,6-tri-O-sulfo-alpha-D-glucopyranosyl-(1->4)-O-2,3-di-O-methyl-alpha-L-idopyranuronosyl-(1>4)-3-O-methyl-2,6-di-O-sulfo-alpha-D-glucopyranoside octakis sodium salt [XIV]” was tested, and the IC50 [1] was 0.63 µM, the Anti-Xa activity (Bovine factor Xa; substrate S-2222, calibrated against standard heparin) was 735 ± 107 U/mg and the Anti-Xa activity (Bovine factor Xa; substrate S-2222, per nmol (from U/mg and Mw)) was 1.68 U/nmol.
